In the supplement of paper PMC11451515:

Experiments:
Details in all cases: 48 h
NOMO1 [1] = test: cell viability relative to DMSO control; higher = less cytotoxic
Method in brief: (§1)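 NOMO1, SEM and P12-Ichikawa leukemia cells spent at least four passages adapting to each medium before use. They were seeded at 500 cells/well (NOMO1, SEM) or 1000 cells/well (P12-Ichikawa) in 5 μl in 1536-well plates and pin-dosed with library compounds in DMSO at 11 threefold steps from 47 μM down to 0.79 nM. After 48 h at 37°C, CellTiter-Glo One luminescence was read. Viability is reported as a percentage of the DMSO wells on each plate, with cell-free wells as background.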

P12-Ichikawa [2] = test: as above
Method in brief: as §1

SEM cells [3] = test: as above
Method in brief: as §1

NOMO1 [4] = test: AUC of viability dose-response curve (% viability x log10 dose units); higher = less sensitive
Method in brief: (§2)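 Library compounds in DMSO were applied for 48 h at 37°C at 11 threefold doses (47 μM to 0.79 nM) to medium-adapted leukemia cells in 1536-well plates holding 500 or 1000 cells/well. Luminescence from CellTiter-Glo One was normalised plate by plate against DMSO and cell-free wells. Area under the curve came from trapezoidal integration of a log-logistic fit, after scaling curves that rose above full viability and discarding those that failed quality control. The fit had four parameters and used log10 doses.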

P12-Ichikawa [5] = test: as above
Method in brief: as §2

SEM cells [6] = test: as above
Method in brief: as §2

CN(C)c1ccccc1CN1CCCN(Cc2ccccc2N(C)C)C1c1ccncc1
cell viability [%]
Details | NOMO1 [1] | P12-Ichikawa [2] | SEM cells [3]
HPLM + 10% dialyzed FBS, 0.000781 µM | 93.7 | 84.7 | 81.3
HPLM + 10% dialyzed FBS, 0.00234 µM | 103 | 94.7 | 91.2
HPLM + 10% dialyzed FBS, 0.00702 µM | 91.6 | 101 | 86.8
HPLM + 10% dialyzed FBS, 0.0211 µM | 29.8 | 11.9 | 23
HPLM + 10% dialyzed FBS, 0.0632 µM | 113 | 102 | 95.2
HPLM + 10% dialyzed FBS, 0.19 µM | 115 | 100 | 94.9
HPLM + 10% dialyzed FBS, 0.569 µM | 108 | 108 | 92.5
HPLM + 10% dialyzed FBS, 1.71 µM | 110 | 111 | 92.6
HPLM + 10% dialyzed FBS, 5.12 µM | 99.9 | 108 | 112
HPLM + 10% dialyzed FBS, 15.4 µM | 95.7 | 78.3 | 97.1
HPLM + 10% dialyzed FBS, 46.1 µM | 65.7 | 94.1 | 83.3
RPMI 5 mM glucose + 10% FBS, 0.000781 µM | 86.4 | 84 | 75.5
RPMI 5 mM glucose + 10% FBS, 0.00234 µM | 82.7 | 90.7 | 85.3
RPMI 5 mM glucose + 10% FBS, 0.00702 µM | 89.2 | 94 | 102
RPMI 5 mM glucose + 10% FBS, 0.0211 µM | 18.6 | 11 | 15
RPMI 5 mM glucose + 10% FBS, 0.0632 µM | 89.4 | 93.7 | 104
RPMI 5 mM glucose + 10% FBS, 0.19 µM | 88 | 99 | 99.3
RPMI 5 mM glucose + 10% FBS, 0.569 µM | 91.1 | 108 | 101
RPMI 5 mM glucose + 10% FBS, 1.71 µM | 81.3 | 105 | 93.9
RPMI 5 mM glucose + 10% FBS, 5.12 µM | 83.5 | 103 | 93.4
RPMI 5 mM glucose + 10% FBS, 15.4 µM | 89.7 | 102 | 5.51
RPMI 5 mM glucose + 10% FBS, 46.1 µM | 74.5 | 80.2 | 49.4
RPMI 5 mM glucose + 10% dialyzed FBS, 0.000781 µM | 77.3 | 82.3 | 73.4
RPMI 5 mM glucose + 10% dialyzed FBS, 0.00234 µM | 88.7 | 88.5 | 79.7
RPMI 5 mM glucose + 10% dialyzed FBS, 0.00702 µM | 90.6 | 82.8 | 95.1
RPMI 5 mM glucose + 10% dialyzed FBS, 0.0211 µM | 33.3 | 19.7 | 18.1
RPMI 5 mM glucose + 10% dialyzed FBS, 0.0632 µM | 93 | 92.9 | 117
RPMI 5 mM glucose + 10% dialyzed FBS, 0.19 µM | 99.6 | 91.7 | 111
RPMI 5 mM glucose + 10% dialyzed FBS, 0.569 µM | 93.7 | 91.1 | 113
RPMI 5 mM glucose + 10% dialyzed FBS, 1.71 µM | 97.7 | 93.4 | 98.3
RPMI 5 mM glucose + 10% dialyzed FBS, 5.12 µM | 95.4 | 101 | 98.2
RPMI 5 mM glucose + 10% dialyzed FBS, 15.4 µM | 95 | 100 | 87.8
RPMI 5 mM glucose + 10% dialyzed FBS, 46.1 µM | 65 | 71.9 | 80

C\C1=N\N(C(=O)C1)C2=CC=CC=C2
cell viability [%], SEM cells [3]
Details | HPLM + 10% dialyzed FBS | RPMI 5 mM glucose + 10% FBS
0.000781 µM | 102 | 113
0.00234 µM | 104 | 121
0.00702 µM | 121 | 129
0.0211 µM | 136 | 119
0.0632 µM | 130 | 130
0.19 µM | 121 | 117
0.569 µM | 112 | 121
1.71 µM | 130 | 123
5.12 µM | 121 | 132
15.4 µM | 118 | 130
46.1 µM | 111 | 117

AUC of viability dose-response curve
Details | NOMO1 [4] | P12-Ichikawa [5] | SEM cells [6]
HPLM + 10% dialyzed FBS | 467 | 471 | 465
RPMI 5 mM glucose + 10% FBS | 467 | 458 | 465
RPMI 5 mM glucose + 10% dialyzed FBS | 462 | 473 | 473

CN(C1CCc2c(c3ccccc3n2CC(=O)O)C1)[S+](=O)([O-])c1ccc(F)cc1 (stereo not given)
AUC of viability dose-response curve
Details | NOMO1 [4] | P12-Ichikawa [5] | SEM cells [6]
HPLM + 10% dialyzed FBS | 383 | 399 | 461
RPMI 5 mM glucose + 10% FBS | 392 | 401 | 425
RPMI 5 mM glucose + 10% dialyzed FBS | 392 | 419 | 454

CC[P](CC)(CC)=[Au][S][C@@H]1O[C@H](COC(C)=O)[C@@H](OC(C)=O)[C@H](OC(C)=O)[C@H]1OC(C)=O
cell viability [%]
Details | NOMO1 [1] | P12-Ichikawa [2] | SEM cells [3]
HPLM + 10% dialyzed FBS, 0.000781 µM | 118 | 122 | –
HPLM + 10% dialyzed FBS, 0.00234 µM | 121 | 108 | –
HPLM + 10% dialyzed FBS, 0.00702 µM | 119 | 116 | –
HPLM + 10% dialyzed FBS, 0.0211 µM | 109 | 109 | –
HPLM + 10% dialyzed FBS, 0.0632 µM | 120 | 115 | –
HPLM + 10% dialyzed FBS, 0.19 µM | 105 | 105 | –
HPLM + 10% dialyzed FBS, 0.569 µM | 115 | 110 | –
HPLM + 10% dialyzed FBS, 1.71 µM | 55.6 | 77.2 | –
HPLM + 10% dialyzed FBS, 5.12 µM | 9.31 | 23 | –
HPLM + 10% dialyzed FBS, 15.4 µM | 3.26 | 2.24 | –
HPLM + 10% dialyzed FBS, 46.1 µM | 2.08 | 1.8 | –
RPMI 5 mM glucose + 10% FBS, 0.000781 µM | 99.7 | 104 | 106
RPMI 5 mM glucose + 10% FBS, 0.00234 µM | 115 | 119 | 120
RPMI 5 mM glucose + 10% FBS, 0.00702 µM | 105 | 112 | 117
RPMI 5 mM glucose + 10% FBS, 0.0211 µM | 109 | 123 | 122
RPMI 5 mM glucose + 10% FBS, 0.0632 µM | 116 | 115 | 115
RPMI 5 mM glucose + 10% FBS, 0.19 µM | 87 | 103 | 108
RPMI 5 mM glucose + 10% FBS, 0.569 µM | 90.4 | 109 | 89.8
RPMI 5 mM glucose + 10% FBS, 1.71 µM | 26.9 | 9.37 | 5.13
RPMI 5 mM glucose + 10% FBS, 5.12 µM | 6.9 | 2.79 | 4.94
RPMI 5 mM glucose + 10% FBS, 15.4 µM | 2.16 | 2.08 | 3.95
RPMI 5 mM glucose + 10% FBS, 46.1 µM | 1.83 | 1.61 | 3.2
RPMI 5 mM glucose + 10% dialyzed FBS, 0.000781 µM | 95 | 117 | 111
RPMI 5 mM glucose + 10% dialyzed FBS, 0.00234 µM | 125 | 111 | 106
RPMI 5 mM glucose + 10% dialyzed FBS, 0.00702 µM | 111 | 117 | 93.8
RPMI 5 mM glucose + 10% dialyzed FBS, 0.0211 µM | 125 | 117 | 108
RPMI 5 mM glucose + 10% dialyzed FBS, 0.0632 µM | 102 | 114 | 106
RPMI 5 mM glucose + 10% dialyzed FBS, 0.19 µM | 114 | 105 | 113
RPMI 5 mM glucose + 10% dialyzed FBS, 0.569 µM | 108 | 96.3 | 103
RPMI 5 mM glucose + 10% dialyzed FBS, 1.71 µM | 48.9 | 3.62 | 5.2
RPMI 5 mM glucose + 10% dialyzed FBS, 5.12 µM | 11.6 | 2.8 | 5.93
RPMI 5 mM glucose + 10% dialyzed FBS, 15.4 µM | 3.14 | – | 4.45
RPMI 5 mM glucose + 10% dialyzed FBS, 46.1 µM | 1.73 | 1.1 | 2.9

AUC of viability dose-response curve
Details | NOMO1 [4] | P12-Ichikawa [5] | SEM cells [6]
HPLM + 10% dialyzed FBS | 357 | 375 | 327
RPMI 5 mM glucose + 10% FBS | 344 | 339 | 336
RPMI 5 mM glucose + 10% dialyzed FBS | 354 | 331 | 315

O=C1CCC(N2C(=O)c3ccccc3C2=O)C(=O)N1 (stereo not given)
SEM cells [3], RPMI 5 mM glucose + 10% FBS
Details | cell viability [%]
0.000781 µM | 106
0.00234 µM | 114
0.00702 µM | 115
0.0211 µM | 112
0.0632 µM | 102
0.19 µM | 94.6
0.569 µM | 98.2
1.71 µM | 111
5.12 µM | 101
15.4 µM | 67.3
46.1 µM | 98.9

AUC of viability dose-response curve
Details | NOMO1 [4] | P12-Ichikawa [5] | SEM cells [6]
HPLM + 10% dialyzed FBS | 436 | 443 | 454
RPMI 5 mM glucose + 10% FBS | 437 | 438 | 437
RPMI 5 mM glucose + 10% dialyzed FBS | 461 | 450 | 443

CC(CCc1ccc(O)cc1)NCCc1ccc(O)c(O)c1 (stereo not given)
SEM cells [3], HPLM + 10% dialyzed FBS
Details | cell viability [%]
0.000781 µM | 117
0.00234 µM | 113
0.00702 µM | 138
0.0211 µM | 145
0.0632 µM | 133
0.19 µM | 141
0.569 µM | 132
1.71 µM | 128
5.12 µM | 114
15.4 µM | 90.5
46.1 µM | 19.8

AUC of viability dose-response curve
Details | NOMO1 [4] | P12-Ichikawa [5] | SEM cells [6]
HPLM + 10% dialyzed FBS | 463 | 441 | 436
RPMI 5 mM glucose + 10% FBS | 461 | 450 | 415
RPMI 5 mM glucose + 10% dialyzed FBS | 452 | 453 | 439
